Source: ChEMBL document CHEMBL1157758, “Structural and stereochemical requirements of the spiroketal group of hippuristanol for antiproliferative activity” (Bioorg Med Chem Lett, 2010)

Tested on: HeLa
Test: Antiproliferative activity against human HeLa cells by [3H]thymidine incorporation
Type: functional, cell-based

Row | SMILES | IC50
1 | CC1(C)C[C@@]2(O[C@H]3C[C@H]4[C@@H]5CC[C@H]6C[C@H](O)CC[C@]6(C)[C@H]5[C@@H](O)C[C@]4(C)[C@H]3[C@@]2(C)O)OC1(C)C | 200 nM
2 | C[C@]12CC[C@@H](O)C[C@@H]1CC[C@@H]1[C@@H]2[C@@H](O)C[C@@]2(C)[C@H]1C[C@@H]1O[C@@]3(CCCCO3)[C@](C)(O)[C@@H]12 | 1600 nM
3 | C[C@]12CC[C@@H](O)C[C@@H]1CC[C@@H]1[C@@H]2[C@@H](O)C[C@@]2(C)[C@H]1C[C@@H]1O[C@]3(CCCCO3)[C@](C)(O)[C@@H]12 | > 10000 nM
4 | C[C@H]1C[C@@]2(O[C@H]3C[C@H]4[C@@H]5CC[C@H]6C[C@H](O)CC[C@]6(C)[C@H]5[C@@H](O)C[C@]4(C)[C@H]3[C@@]2(C)O)OC1(C)C [HIPPURISTANOL] | 70 nM
5 | CCC1(CC)CC[C@]2(O[C@H]3C[C@H]4[C@@H]5CC[C@H]6C[C@H](O)CC[C@]6(C)[C@H]5[C@@H](O)C[C@]4(C)[C@H]3[C@@]2(C)O)O1 | > 10000 nM
6 | CC1(C)CO[C@@]2(C1)O[C@H]1C[C@H]3[C@@H]4CC[C@H]5C[C@H](O)CC[C@]5(C)[C@H]4[C@@H](O)C[C@]3(C)[C@H]1[C@@]2(C)O | > 10000 nM
7 | CC1(C)C[C@]2(O[C@H]3C[C@H]4[C@@H]5CC[C@H]6C[C@H](O)CC[C@]6(C)[C@H]5[C@@H](O)C[C@]4(C)[C@H]3[C@@]2(C)O)OC1(C)C | 2200 nM
8 | CC1(C)CO[C@]2(C1)O[C@H]1C[C@H]3[C@@H]4CC[C@H]5C[C@H](O)CC[C@]5(C)[C@H]4[C@@H](O)C[C@]3(C)[C@H]1[C@@]2(C)O | > 10000 nM
9 | CC1(C)CCC[C@]2(O[C@H]3C[C@H]4[C@@H]5CC[C@H]6C[C@H](O)CC[C@]6(C)[C@H]5[C@@H](O)C[C@]4(C)[C@H]3[C@@]2(C)O)O1 | 4900 nM
10 | CC1(C)CCC[C@@]2(O[C@H]3C[C@H]4[C@@H]5CC[C@H]6C[C@H](O)CC[C@]6(C)[C@H]5[C@@H](O)C[C@]4(C)[C@H]3[C@@]2(C)O)O1 | 600 nM
11 | CCC1(CC)CC[C@@]2(O[C@H]3C[C@H]4[C@@H]5CC[C@H]6C[C@H](O)CC[C@]6(C)[C@H]5[C@@H](O)C[C@]4(C)[C@H]3[C@@]2(C)O)O1 | 3600 nM
12 | CC1(C)C[C@@]2(O[C@H]3C[C@H]4[C@@H]5CC[C@H]6C[C@H](O)CC[C@]6(C)[C@H]5[C@@H](O)C[C@]4(C)[C@H]3[C@]2(C)O)OC1(C)C | > 10000 nM
